Common to all, as to type: in vivo
The subject of assay [1] is HN5 (human head and neck tumor line). Nature of the assay: HN5 subcutaneous human xenograft mouse model, anti-tumor activity. To be noted: monotherapy, at highest dose; HN5 s.c. xenograft; FIG. 1. The method, then: HN5 cells were cultured in RPMI 1640+10% Fetal bovine serum, Sodium pyruvate and L-Glutamine at 37° in a 95/5% air/CO2 atmosphere. Cells were harvested following trypsin digestion and brought to a density of 2×10^6 cells/200 μl in PBS. Tumors were initiated by injection of the cell suspension subcutaneously in the axillary region.
For the xenograft models used here solid tumors were measured by electronic caliper measurement through the skin, measurements were typically made twice weekly. In the examples presented, tumors were monitored beyond the duration of therapy
Drugs were administered by P.O. or IV. routes. The title compound or salt thereof of Example 1 was formulated in aqueous 0.5% hydroxypropyl methylcellulose, 0.1% Tween 80 and administered as a suspension twice daily for 21 days as indicated in the respective figures. TAXOL® (paclitaxel) (Bristol Myers Squibb Co.) was purchased preformulated in Cremophor-EL saline and diluted into saline to a final Cremophor-EL concentration of 5 or 10% Cremophor-EL for 10 or 20 mg/kg TAXOL® (paclitaxel) therapy respectively. TAXOL® (paclitaxel) was administered IV., once a day, for 5 days (days 1-5 of Example 1 therapy) as indicated in the respective figures. […]

The test system of assay [2] is BT474 (human breast tumor line). The assay can be described thus: BT474 subcutaneous human xenograft mouse model, anti-tumor activity. To be noted: monotherapy (Example 1 at the highest dose tested); BT474 s.c. xenograft; FIG. 2.
Experimental: The BT474 xenograft was maintained by serial transplantation in SCID mice. Tumors are initiated by injection of tumor fragments subcutaneously in the axillary region.
Drugs were administered by P.O. or IV. routes. The title compound or salt thereof of Example 1 was formulated in aqueous 0.5% hydroxypropyl methylcellulose, 0.1% Tween 80 and administered as a suspension twice daily for 21 days as indicated in the respective figures. TAXOL® (paclitaxel) (Bristol Myers Squibb Co.) was purchased preformulated in Cremophor-EL saline and diluted into saline to a final Cremophor-EL concentration of 5 or 10% Cremophor-EL for 10 or 20 mg/kg TAXOL® (paclitaxel) therapy respectively. TAXOL® (paclitaxel) was administered IV., once a day, for 5 days (days 1-5 of Example 1 therapy) as indicated in the respective figures. Carboplatin (Sigma) was formulated in saline and was administered I.V., once a day, for two 5 day periods as indicated in the respective figure (days 1-5 and 15-19 of Example 1 therapy).
The subject of assay [3] is NCI H322 (human lung tumor line). The assay can be described thus: NCI H322 subcutaneous human xenograft mouse model, anti-tumor activity. To be noted: monotherapy; NCI H322 s.c. xenograft; FIG. 3. The procedure: Cells were harvested following trypsin digestion and brought to a density of 2×10^6 cells/200 μl in PBS. Tumors were initiated by injection of the cell suspension subcutaneously in the axillary region. In addition some experiments were performed following serial transplantation of tumor fragments in SCID mice. Tumors were initiated by injection of tumor fragments subcutaneously in the axillary region.
A general note: A xenograft is tissue or cells of one species grown in another, often human tumour cells in immunodeficient mice.

`N.N.O=C([O-])C1(C(=O)[O-])CCC1.[Pt+2]` [Carboplatin, platinum, diammine [1,1-cyclobutane-dicarboxylate(2-)-O,O′]]: in assay [1], the tumor growth inhibition result was “about 45%”.
For the molecule `CS(=O)(=O)CCNCc1ccc(-c2ccc3ncnc(Nc4ccc(OCc5cccc(F)c5)c(Cl)c4)c3c2)o1` [Example 1, N-{3-Chloro-4-[(3-fluorobenzyl)oxy]phenyl}-6-[5-({[2-(methylsulfonyl)ethyl]amino}methyl)-2-furyl]-4-quinazolinamine], the tumor growth inhibition entry is on record as “about 90%” in assay [2], 100-130% in assay [3] and “about 80%” in assay [1].
Take `CC(=O)O[C@H]1C(=O)[C@@]2(C)[C@H]([C@H](OC(=O)c3ccccc3)[C@]3(O)C[C@H](OC(=O)[C@H](O)[C@@H](NC(=O)c4ccccc4)c4ccccc4)C(C)=C1C3(C)C)[C@]1(OC(C)=O)CO[C@@H]1C[C@@H]2O` [TAXOL® (paclitaxel), 5β,20-epoxy-1,2α,4,7β,10β,13α-hexa-hydroxytax-11-en-9-one 4,10-diacetate 2-benzoate 13-ester with (2R,3S)-N-benzoyl-3-phenylisoserine]: the tumor growth inhibition result in assay [2] and in assay [3] was “about 45%” throughout.

Source of the values: patent US8444988B2, “Cancer treatment method” (GlaxoSmithKline LLC, priority 2001, dated 2013).
